# Reference: paper PMC9738531, “Cholinesterases Inhibition, Anticancer and Antioxidant Activity of Novel Benzoxazole and Naphthoxazole Analogs” (Molecules, 2022)
# Legend:
# [1] = tested on: T47D (breast cancer) cells; assay: SRB antiproliferative assay, T47D; type: cell-based, human; settings: Homo sapiens, T47D, 72 h, means ± SD
# Experimental: (§1) The compounds were also evaluated for their antiproliferative potencies against human cancer cell lines as the potential anticancer agents. […]. The results are presented in Table 3 and expressed as IC50 (μM). In that score, the highest potency was shown by the analogs from the naphtho[1,2-d][1,3]oxazole group 8–10, particularly by derivative 10 with a chlorine atom on the benzenediol moiety.
# (§2) In the antiproliferative assay in vitro, the following human cell lines were applied: T47D (breast cancer), SW707 (rectal adenocarcinoma), A549 (non-small cell lung carcinoma) from the American Type Culture Collection (Rockville, MD, USA) and HCV29T (bladder cancer) from the Fibiger Institute, Copenhagen, Denmark. Cytotoxicity assay was performed after 72 h exposure of the cultured cells at the concentration ranging from 0.1 to 100 μg/mL of the tested agents. The SRB test measuring the cell proliferation inhibition in the in vitro culture was applied. The cellular material fixed with TCA was stained with 0.4% sulforhodamine B (Chemie GmbH, Steinheim, Germany) dissolved in 1% acetic acid (POCh, Gliwice, Poland) for 30 min.
# [2] = tested on: normal keratinocytes HaCaT cells; assay: LDH cytotoxicity assay, HaCaT normal cells; type: cell-based, human; settings: HaCaT, tested concentration to 25 µM, 72 h
# Experimental: (§3) In view of the observed antiproliferative activity, the influence of the tested compounds on the normal human cells—normal mammary gland epiterial cells of the MCF10A line and the normal keratenocytes HaCaT line—was examined (Figure 5). The cells were treated with compounds 3, 8 and 10 in the concentration range from 0.1 µM to 25 µM for 72 h, after which the cell viability was tested by analysis of the level of released lactate dehydrogenase (LDH method).
# (§4) Normal human epithelial cells from the mammary gland, MCF10A (a generous gift from our colleague Dr. Saraswati Sukumar (JHU), who obtained them recently from ATCC), and normal human keratinocytes HaCaT (also obtained from ATCC), were cultured in DMEM/F12 medium (Gibco), supplemented with 5% horse serum (Gibco), 5% FBS (Sigma-Aldrich Chemie GmbH, Taufkirchen, Germany ), penicillin streptomycin solution (1×) (Gibco) at 37 °C and 5% CO2. The cells were subcultured twice a week.
# (§5) Human epiterial breast cells MCF10A and human keratinocytes HaCaT (1 × 10^4/mL) cells were placed on 96-well plates (Nunc, Roskilde, Denmark). The next day, the cells were exposed to increasing concentrations of compounds 3, 8 and 10 in 0.1, 0.25, 0.5, 1, 2.5, 5, 10 and 25 μM in fresh culture medium. Cytotoxicity was estimated based on the measurements of cytoplasmic lactate dehydrogenase (LDH) activity released from the damaged cells after the 72 h exposure to the compounds. The LDH assay was performed according to the manufacturer’s instructions (Cytotoxicity Detection KitPLUS LDH, Roche, Mannheim, Germany). Absorbance was measured using a microplate at two different wavelengths: “measurement wavelength” (492 nm) and “reference wavelength” (690 nm), using a microplate.
# [3] = tested on: normal mammary gland MCF10A cells; assay: LDH cytotoxicity assay, MCF10A normal cells; type: cell-based, human; settings: 72 h
# Experimental: as §3, §4, §5
# [4] = tested on: A549 (non-small cell lung carcinoma) cells; assay: SRB antiproliferative assay, A549; type: cell-based, human; settings: Homo sapiens, A549, 72 h, means ± SD
# Experimental: as §1, §2
# [5] = tested on: SW707 (rectal adenocarcinoma) cells; assay: SRB antiproliferative assay, SW707; type: cell-based, human; settings: Homo sapiens, SW707, 72 h, means ± SD, read-out: IC50 SW 707
# Experimental: as §1, §2
# [6] = tested on: HCV29T (bladder cancer) cells; assay: SRB antiproliferative assay, HCV29T; type: cell-based, human; settings: Homo sapiens, HCV29T, 72 h, means ± SD, read-out: IC50 HCV 29T
# Experimental: as §1, §2
# [7] = tested on: human cancer cell lines (HCV29T, T47D, A549, SW707); assay: SRB antiproliferative assay, all studied cancer cell lines; type: cell-based; settings: read-out: IC50 range against all studied cells
# Experimental: as §1, §2
# [8] = DPPH free radical scavenging activity; settings: concentration scavenging 50% of DPPH radicals; means ± SD of three experiments
# Experimental: To evaluate the antioxidant potential of compounds as radical scavengers versus the stable free radicals, 2,2-diphenylpicrylhydrazyl (DPPH) was applied. Antioxidant properties were expressed as the IC50 value—the concentration of compound required for scavenging 50% of DPPH radicals. […].
# The DPPH free radical scavenging activities of the synthesized compounds were measured by DPPH, according to the method described in the paper. The free radical scavenging activity was measured as a decrease in the absorbance of DPPH, and calculated using the equation:DPPH scavenging effects (%) = […] [(A0 − A1)/A0]∙100](2) where: A0 was the absorbance of the control reaction and A1 absorbance in the presence of the sample of the analysed compounds [62]. The IC50 values were calculated as the concentration of compound required for scavenging 50% of DPPH [45]. Results were presented as the mean ± standard deviation (SD). The antioxidant activity data were compared using the one-way ANOVA test at the significance level 5%.
# [9] = biological target: T1, butyrylcholinesterase (BChE, E.C. 3.1.1.8, from equine serum) (Equus caballus, UniProt P81908); assay: biochemical; settings: means ± SEM of three independent experiments
# T1 construct: butyrylcholinesterase (BChE, E.C. 3.1.1.8, from equine serum); purchased Sigma-Aldrich (Steinheim, Germany); host or cells: equine serum (natural source)
# T1 sequence (P81908 whole entry): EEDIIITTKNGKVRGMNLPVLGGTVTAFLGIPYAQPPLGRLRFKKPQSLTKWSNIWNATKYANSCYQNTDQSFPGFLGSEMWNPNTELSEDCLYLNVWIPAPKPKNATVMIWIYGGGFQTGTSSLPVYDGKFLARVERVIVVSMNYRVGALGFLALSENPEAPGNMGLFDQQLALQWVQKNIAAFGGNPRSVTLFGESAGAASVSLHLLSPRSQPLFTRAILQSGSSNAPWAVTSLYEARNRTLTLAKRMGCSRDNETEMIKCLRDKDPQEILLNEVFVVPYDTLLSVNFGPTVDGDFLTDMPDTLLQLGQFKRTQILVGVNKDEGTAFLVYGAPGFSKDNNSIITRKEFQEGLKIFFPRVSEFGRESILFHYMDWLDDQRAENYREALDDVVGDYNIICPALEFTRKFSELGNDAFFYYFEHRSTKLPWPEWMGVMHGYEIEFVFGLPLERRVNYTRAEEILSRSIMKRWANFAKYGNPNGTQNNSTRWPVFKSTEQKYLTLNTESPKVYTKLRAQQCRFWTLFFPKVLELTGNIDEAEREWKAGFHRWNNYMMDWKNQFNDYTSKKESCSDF
# Experimental: (§6) The compounds were evaluated by an in vitro assay as the AChE and BChE inhibitors. The studies were carried out using the modified Ellman’s method. […] The inhibitory activities against AChE and BChE of the newly-synthesized compounds were determined exactly, according to a previous paper. […] The samples were analysed in triplicate. IC50 values were designated from a dose–response curve obtained by plotting the percentage of inhibition versus the log concentration, using GraphPad Prism 8 software. […] AChE and BChE activity data were compared using the Kruskal–Wallis test at the significance level of 1%.
# [10] = biological target: T2, Acetylcholinesterase (AChE, E.C. 3.1.1.7, from human erythrocytes) (Homo sapiens, UniProt P22303); assay: biochemical
# T2 construct: Acetylcholinesterase (AChE, E.C. 3.1.1.7, from human erythrocytes); purchased Sigma-Aldrich (Steinheim, Germany); host or cells: human erythrocytes (natural source)
# T2 sequence (P22303 other isoform, or with tags, fused parts or gaps): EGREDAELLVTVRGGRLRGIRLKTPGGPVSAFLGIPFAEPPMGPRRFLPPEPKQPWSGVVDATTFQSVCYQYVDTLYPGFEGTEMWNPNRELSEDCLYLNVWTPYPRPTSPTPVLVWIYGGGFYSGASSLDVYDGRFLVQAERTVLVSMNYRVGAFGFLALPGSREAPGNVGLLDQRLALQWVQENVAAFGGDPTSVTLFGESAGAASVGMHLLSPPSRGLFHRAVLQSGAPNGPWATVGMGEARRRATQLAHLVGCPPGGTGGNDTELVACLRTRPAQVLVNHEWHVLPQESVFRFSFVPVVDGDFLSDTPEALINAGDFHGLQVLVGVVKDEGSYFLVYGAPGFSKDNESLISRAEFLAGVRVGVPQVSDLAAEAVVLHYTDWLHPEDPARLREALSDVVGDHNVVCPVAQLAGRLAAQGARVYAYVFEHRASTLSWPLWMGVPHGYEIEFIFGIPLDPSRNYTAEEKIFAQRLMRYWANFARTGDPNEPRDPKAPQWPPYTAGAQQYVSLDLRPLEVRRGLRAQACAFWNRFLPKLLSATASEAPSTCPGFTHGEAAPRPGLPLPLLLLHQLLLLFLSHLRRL
# Experimental: as §6
# [11] = Lipophilicity by RP-18 HPLC chromatography; type: physicochemical
# Excerpt: The lipophilicity parameter was estimated for the tested compounds as it is an important feature that influences the pharmacokinetic properties of bioactive compounds [46, 47]. Lipophilicity also determines some biological activities, such as the antiproliferative or fungistatic activity. For lipophilicity determination, reversed-phase column chromatography was used, with the octadecyl C-18 stationary phase and MeOH as the organic modifier in the isocratic conditions.
# HPLC measurements were performed using a liquid chromatograph (Knauer, Berlin, Germany) with a dual pump and a UV-visible detector. The measurements were made at 254 or 320 nm at room temperature. A Eurosil Bioselect C18 (5 μm, 300 × 4.6 mm) column was applied as the stationary phase. The mobile phase consisted of different volume mixtures of 20 mM acetate buffer as the aqueous phase, and MeOH as the organic modifier (pH 7.4). The different concentrations of MeOH from 0.5 to 0.90 (v/v) range was used, depending on the structure of the compound at 0.05 intervals. The flow rate was 1 mL/min. Retention time of an unretained solute (t0) was determined by the injection of a small amount of acetone dissolved in water.
# Regular changes in the retention coefficients of compounds in a function of the organic modifier MeOH content in the mobile phase are described by the Soczewiński–Wachtmeister equation [56]:log k = log kw + S φ(1)
# φ—the volume fraction of organic modifier (MeOH) in the mobile phase; log kw—the intercept; S—slope of the regression curve. Log kw refers to the retention parameter of a compound with pure water as the mobile phase.
smiles,measurement,setting,value
"Oc1cc(O)c(-c2nc3c(ccc4ccccc43)o2)cc1Cl [Compound 10, 4-Chloro-6-(naphtho[1,2-d][1,3]oxazol-2-yl)benzene-1,3-diol]",IC50,[1],2180 ± 1050 nM
same,toxicity to keratinocytes (LDH release),[2],not toxic
same,change in level of lactate dehydrogenase,"[3]; 0.1–5 µM, vs control",statistically significant reduction
same,toxicity to normal breast cells (LDH release),[3]; tested concentration to 25 µM,not toxic
same,IC50,[4],2710 ± 120 nM
same,IC50,[5],2890 ± 340 nM
same,IC50,[6],2240 ± 830 nM
same,IC50,[7],2180 to 2890 nM
same,IC50,[8],633 ± 146 nM
same,IC50,[9],887 ± 41 nM
same,Selectivity for AChE,[10]; IC50 (BChE)/IC50 (AChE),1.278
same,IC50,[10]; means ± SEM of three independent experiments,694 ± 11 nM
same,-S (slope of log k vs MeOH fraction),"[11]; MeOH/acetate buffer, pH 7.4",4.996
same,log kw,"[11]; pH 7.4, extrapolation to pure water as mobile phase",4.518
